The record followed here is paper PMC2397535 (Breast Cancer Research : BCR, 2008).

Experiment [1] deals with MDA-MB-231. The experiment is described as follows: antiproliferative effect (GI50), breast cancer cell line. The experiment is classed as cell-based. Conditions: Homo sapiens.
Experiment [2] concerns SkBr3. The description is as above. The experiment is classed as cell-based. The note with it: Homo sapiens, SK-BR-3.
Experiment [3] has as its system BT20. The description is as above. The experiment is classed as cell-based. The note with it: Homo sapiens, BT-20.
The test system of experiment [4] is MDA-MB-157. The experiment is described as above. Conditions: Homo sapiens. It is filed as cell-based.
Experiment [5] concerns MCF-7. The description is as above. The experiment is classed as cell-based. Conditions: Homo sapiens, MCF7.
Experiment [6] has as its system MDA-MB-468. Described as above. It is filed as cell-based. The note with it: Homo sapiens.
The test system of experiment [7] is BT-474. The description is as above. It is filed as cell-based. Conditions: Homo sapiens.
Experiment [8] deals with HSP90-p23 complex (Homo sapiens, UniProt P07900). How it is done:
For immunoprecipitation, 300 μg of total protein was immunoprecipitated with 5 μg of rat anti-HSP90α monoclonal antibody (SPA-840, clone 9D2, isotype: IgG2a; Assay Designs, Inc.). Proteins were resolved by 12% SDS-PAGE and transferred to PVDF membranes.

Usually GI50 stands for the concentration at which growth is held to half of that of the control. Lower therefore signals more potent growth inhibition. For `C=CCNC1=C2C[C@@H](C)C[C@H](OC)[C@H](O)[C@@H](C)/C=C(\C)[C@H](OC(N)=O)[C@@H](OC)/C=C\C=C(/C)C(=O)NC(=CC1=O)C2=O` [17-AAG, 17-allylamino-17-demethoxygeldanamycin, reference compound], the GI50 in experiment [1] amounted to 2060 nM; in experiment [2], 11.9 ± 8 nM; in experiment [3], 18.9 ± 4.8 nM; in experiment [4], 29.5 ± 20.8 nM; in experiment [5], 69 ± 18.3 nM; in experiment [6], 1660 nM. This compound showed a GI50 in experiment [7] of 17.4 ± 5.2 nM. Also, in experiment [8], the “amount of HSP90α co-immunoprecipitating with p23” value is on record as “concentration-dependent decrease”. Also, in experiment [8], the “time to complete HSP90-p23 dissociation (full inhibition)” value was ≤ 15 min.
